According to patent US7064190B1, “Antigen-specific, activated T lymphocytes, detection and use” (Roche Diagnostics GmbH, priority 1994, dated 2006):

Columns and labels:
Format in all cases: cell-based, human
[1] = tested on: T cell line 6/10; experiment: Proliferation test with variants of the peptide 5G1 using the T cell line 6/10; conditions: for Stimulation index: TCL 6/10, variants of peptide 5G1
Method: In order to elucidate the core structure of the stimulating peptide 5G1, proliferation tests were carried out with various variants of this peptide using the T cell line 6/10 (see Table 4).
A test with a first series of 20 mer variants is intended to ascertain whether amino acids which border on the 5G1 structure at the C- or N-terminus play a role in the recognition by the T cell line 6/10. […] A 6 amino acid shift towards the N-terminus leads to a loss in stimulation capacity.
A test with a second series of peptide variants examines the influence of a shortening at the C-terminus.
The object of a test with a third series of peptide variants was to define the N-terminus of the minimum stimulation-active peptide. If the amino acids leucine (L) and proline (P) are removed from a 18 mer with an intact C-terminus, this leads to a strong decrease of the stimulation index. The N-terminus is thus defined by L and P. If the […] is shortened further by H and F this also leads to a loss of stimulation activity.

[2] = tested on: T cell line 6/7; experiment: T cell proliferation with peptides using PBLs of various haplotypes as antigen-presenting cells, TCL 6/7; conditions: for SI (stimulation index): TCL 6/7
Method: (§1) The experimental procedure is analogous to example 1.3. […] The proliferation tests were carried out using the autoantigenic peptides 5G1 (corresponding to amino acids 266–285 of human GAD65) and 5F3 (corresponding to amino acids 306–325 of human GAD65).
(§2) T cell proliferation after stimulation with the peptides 5G1 and 5F3 using PBLs with various haplotypes as antigen-presenting cells

[3] = tested on: T cell line 6/10; experiment: T cell proliferation with peptides using PBLs of various haplotypes as antigen-presenting cells, TCL 6/10; conditions: for proliferation in the presence of the DR B1 allele 0401: T cell line 6/10; for SI (stimulation index): TCL 6/10
Method: as §1, §2

[4] = tested on: T cell line 6/7; experiment: Proliferation test with peptides derived from the H-GAD sequence, T cell line 6/7; conditions: 10 μg/ml individual peptides from pools 7 and 11, FIG. 5
Method: (§3) Autologous PBLs or PBLs of a normal donor which are identical with regard to the HLA class II antigens are used as stimulator cells. The PBLs are pre-incubated with antigen as described in paragraph 2, irradiated with 4000 rad and distributed in 96 well plates (100 000 cells/well).
(§4) After 3–4 days at 37° C./7% CO2, 1 μCi ^3H-thymidine is added and incubated for a further 16–20 hours. Afterwards the cells are transferred onto a glass fibre filter by means of a cell harvester instrument and the incorporated radioactivity is determined in a β counter.
(§5) T cell lines that had been expanded by means of at least 4 restimulation cycles and which reacted with SW-GAD in the proliferation test were additionally tested with overlapping peptides of H-GAD. The object of these experiments is to define the epitopes of H-GAD that are recognized by the T cells. For this, overlapping 20 mer peptides of H-GAD are firstly synthesized (overlapping region 10 amino acids, total of 59 different peptides).
(§6) […] The further treatment of these stimulator cells is carried out as described in section 3a.
(§7) Subsequently 6000–20,000 T cells are added per microculture well. The further procedure is analogous to that described in section 3b.

[5] = tested on: T cell line 6/10; experiment: Proliferation test with peptides derived from the H-GAD sequence, T cell line 6/10; conditions: 10 μg/ml individual peptides from pools 7 and 11, FIG. 6
Method: as §3, §4, §5, §6, §7

[6] = tested on: T cell line 6/10; experiment: Proliferation test with SW-GAD, T cell line 6/10; conditions: stimulator PBLs pulsed with SW-GAD
Method: (§8) The first restimulation is carried out on the 14th day after the beginning of the primary stimulation. For this, in comparison to the primary stimulation, double the number of autologous PBLs is isolated by means of Ficoll and adjusted in culture medium to a cell concentration of 2×10^6/ml. One half of these stimulator cells is incubated for 2 hours/37° C./7% CO2 with the antigen SW-GAD (final concentration 5 μg/ml) (antigen pulse). The other half is incubated under the same conditions without antigen and only with culture medium. Subsequently all stimulator cells are irradiated with 4000 rad. The stimulator cells are then distributed (100 000 cells/well) in 96 well round-bottom plates in such a way that a well with stimulator cells containing antigen is always adjacent to a well with stimulator cells without antigen.
(§9) All tests are carried out in at least duplicate preparations.
(§10) Autologous PBLs or PBLs of a normal donor which are identical with regard to the HLA class II antigens are used as stimulator cells. […]
as §4

[7] = tested on: T cell line 6/7; experiment: Proliferation test with SW-GAD, T cell line 6/7; conditions: stimulator PBLs pulsed with SW-GAD
Method: as §8, §9, §10, §4

[8] = APC donor four (DR B1 0301/0401)
[9] = APC donor one (DR B1 1302/0401)
[10] = APC donor three (DR B1 0301/0404)
[11] = APC donor two (DR B1 0101/1601)

Molecule: GMAALPRLIAFT [SEQ ID NO:14]
- Stimulation index [1]: 1.0

Molecule: LPRLIAFTSEHSHFSLKK [SEQ ID NO:15]
- Stimulation index [1]: 3.2

Molecule: AALPRLIAFTSEHS [SEQ ID NO:11]
- Stimulation index [1]: 0.7

Molecule: AALPRLIAFTSE [SEQ ID NO:12]
- Stimulation index [1]: 0.6

Molecule: LPRLIAFTSEHSHF [SEQ ID NO:17]
- stimulation capacity of 5G1 variants ([1]; T cell line 6/10): minimum peptide that can still stimulate
- Stimulation index [1]: 4.6

Molecule: GMAALPRLIAFTSEHSHFSLKKGAA (GMAALPRLIAFTSEHSHFSLKKGAA) [amino acid sequence (I), amino acid residues 266–290 of the human GAD 65]
- proliferation in the presence of the DR B1 allele 0401 and 0101 or/and 1601 ([2]; T cell line 6/7): proliferates
- proliferation in the presence of the DR B1 allele 0401 [3]: proliferates

Molecule: GMAALPRLIAFTSEHSHFSL [5G1, corresponding to amino acids 266–285 of human GAD 65]
- proliferation with individual peptides [4]: significant proliferation
- Stimulation index [1]: 5.4
- recognition in association with the alleles DR B1 0101 or/and 1601 ([2]; T cell line 6/7): recognizes
- SI (stimulation index) ([2]; APC donor 19 (DR B1 0301/0401)): 45.7
- SI (stimulation index) [2, 8]: 55.0
- SI (stimulation index) [2, 9]: 67.8
- SI (stimulation index) [2, 10]: 0.9
- SI (stimulation index) [2, 11]: 28.6
- proliferation with individual peptides [5]: significant proliferation
- SI (stimulation index) ([3]; APC donor 19 (DR B1 0301/0401)): 8.5
- SI (stimulation index) [3, 8]: 6.0
- SI (stimulation index) [3, 9]: 22.6
- SI (stimulation index) [3, 10]: 1.5
- SI (stimulation index) [3, 11]: 2.2

Molecule: PEVKEKGMAALPRLIAFTSE [SEQ ID NO:8]
- Stimulation index [1]: 0.6

Molecule: RLIAFTSEHSHFSLKKGAAA [SEQ ID NO:7]
- Stimulation index [1]: 3.2

Molecule: LPRLIAFTSEHS [SEQ ID NO:18]
- Stimulation index [1]: 0.4

Molecule: RLIAFTSEHSHFSL [SEQ ID NO:16]
- Stimulation index [1]: 1.4

Molecule: ALPRLIAFTSEHSHFSLKKG [SEQ ID NO:6]
- Stimulation index [1]: 3.0

Molecule: AALPRLIAFTSEHSHFSL [SEQ ID NO:9]
- Stimulation index [1]: 4.5

Molecule: GMAALPRLIAFTSE [SEQ ID NO:13]
- Stimulation index [1]: 0.8

Molecule: AALPRLIAFTSEHSHF [SEQ ID NO:10]
- Stimulation index [1]: 2.9

Molecule: ERGKMIPSDLERRILEAKQK (ERGKMIPSDLERRILEAKQK) [5F3, corresponding to amino acids 306–325 of human GAD 65]
- proliferation with individual peptides [4]: smaller but significant proliferation
- proliferation in the presence of the DR B1 allele 0401 ([2]; T cell line 6/7): proliferation in the presence of the DR B1 allele 0401 is found
- SI (stimulation index) ([2]; APC donor 19 (DR B1 0301/0401)): 3.1
- SI (stimulation index) [2, 8]: 3.8
- SI (stimulation index) [2, 9]: 7.0
- SI (stimulation index) [2, 10]: 0.6
- SI (stimulation index) [2, 11]: 1.2
- proliferation with individual peptides [5]: smaller but significant proliferation
- proliferation in the presence of the DR B1 allele 0401 [3]: proliferates
- SI (stimulation index) ([3]; APC donor 19 (DR B1 0301/0401)): 2.8
- SI (stimulation index) [3, 8]: 3.8
- SI (stimulation index) [3, 9]: 6.5
- SI (stimulation index) [3, 10]: 1.5
- SI (stimulation index) [3, 11]: 1.4

B1: SW-GAD: porcine GAD (glutamic acid decarboxylase from pig brain) used as antigen (protein)
chain: MASSTPSSSATSSNAGPDPNTTNLRPTTYDTWCGVAHGCTRKLGLKICGFLQRTNSLEEKSRLVSAFKERQSSKNLLSCENSDRDGRFRRTETDFSNLFARDLLPAKNGEEQTVQFLLEVVDILLNYVRKTFDRSTKVLDFHHPHQLLEGMEGFNLELSDHPESLEQILVDCRDTLKYGVRTGHPRFFNQLSTGLDIIGLAGEWLTSTANTNMFTYEIAPVFVLMEQITLKKMREIVGWSNKDGDGIFSPGGAISNMYSIMAARYKYFPEVKTKGMAAVPKLVLFTSEHSHYSIKKAGAALGFGTDNVILIKCNERGKIIPADLEAKILEAKQKGYIPLYVNATAGTTVYGAFDPIQEIADICEKYNLWLHVDAAWGGGLLMSRKHRHKLSGIERADSVTWNPHKMMGVLLQCSAILVKEKGILQGCNQMCAGYLFQPDKQYDVSYDTGDKAIQCGRHVDIFKFWLMWKAKGTVGFENQINKCLELAEYLYAKIKNREEFEMVFDGEPEHTNVCFWYIPQSLRGVPDSPERREKLHRVAPKIKALMMESGTTMVGYQPQGDKANFFRMVISNPAATQSDIDFLIEEIERLGQDL
- cpm SW-GAD (3H-thymidine incorporation) [6]: 5222 cpm
- cpm SW-GAD (3H-thymidine incorporation) [7]: 9373 cpm
